Laboratory results reported in patent publication US4192896A, “Method of using dialkylphenols in the treatment of mycoplasma diseases” (priority 1979, dated 1980).

Key:
M. pneumoniae [1] = assay: Relative activity of hamster tracheal explants infected with M. pneumoniae; assay type: cell-based
Description: (§1) Adult golden hamsters (approximately 140 g. male and female) were used as the tissue source. Animals appearing to be disease-free were selected. Tracheas were removed aseptically and sliced into rings. The rings were rinsed and then transfered into sterile Petri dishes containing a shallow layer of minimal essential medium (MEM, with glutamine, NaHCO3, 10% horse serum and 500 units of penicillin G/ml). These organ cultures were incubated for 24 hours at 36° C. in 5% carbon dioxide and then scored for "relative activity" (RA), a measure of explant viability. "Relative Activity" (0 to 300) is the product of the percentage of the epithelial layer which is intact (0 to 100) and the relative vigor of ciliary beating (0 to 3).
(§2) The trachea rings were infected with M. pneumonia, strain PI 1428 (originally obtained from Dr. Robert Chanock, National Institutes of Health, Bethesda, Md.) which was used in the 10th to 12th passage and was grown on G-199 medium. Tracheal explants were infected with logarithmically growing cells using methods described by Gabridge, et al. Except where otherwise noted, groups of from 3 to 6 rings were preincubated for one hour in MEM with or without an appropriate amount of 2,4-dimethylphenol prior to the addition of mycoplasmas. Following exposure to M. pneumoniae for two hours, the rings were rinsed twice in phosphate buffered saline and then placed in a sterile Petri dish containing MEM and, where indicated, the required amount of 2,4-dimethylphenol or 2,4-DMP as used herein. Cultures were incubated at 36° in 5% carbon dioxide and scored daily for RA.
(§3) Infection Studies: M. pneumoniae attaches to the surface (as used herein the surface refers to in luminal epithelial lining) of the tracheal tissue within an hour or two following exposure. Decreases in the vigor of ciliary activity and loss of epithelial cells are evident within 24 to 48 hours post-infection. In most cases, little or no ciliary activity remains by the sixth or seventh day.
(§4) Time Course: In the studies reported thus far, tracheal explants were pretreated with 2,4-DMP for one hour before exposure to M. pneumoniae. Some insight into the nature, that is, the site or mode of action, of this protective phenomenon may be gained by altering the time at which 2,4-DMP is added to the culture media.

[2] = tested on: uninfected hamster tracheal explants; assay: Electron microscopic and histopathic examination of uninfected hamster tracheal explants exposed to 2,4-DMP; assay type: cell-based, golden hamster; details: 10^-3 and 10^-4 M
Description: as §1

[3] = tested on: uninfected hamster tracheal explants; assay: Relative activity (explant viability: epithelial integrity x ciliary vigor) of uninfected hamster tracheal explants exposed to 2,4-DMP (toxicity); assay type: cell-based, golden hamster; details: for Relative activity following days of incubation with 2,4-DMP: uninfected explants, scale 0 to 300
Description: as §1
Before undertaking further studies the determination of the toxicity of 2,4-DMP toward hamster tracheal explants and Mycoplasma pneumoniae is necessary.

M. pneumoniae [4] = assay: Protection of tracheal explants against the M. pneumoniae infective process (overall, in words); assay type: cell-based
Description: as §1, §2, §4

M. pneumoniae [5] = assay: Tetrazolium reduction by hamster tracheal explants infected with M. pneumoniae; assay type: cell-based; details: for Tetrazolium Reduction 7 days post infection: Table 4, infecting titer 6 × 10^6 CFU/ml
Description: as §2, §4

M. pneumoniae [6] = assay: Surface morphology of tracheal rings exposed to M. pneumoniae; assay type: cell-based; details: at least 10^-9 M
Description: as §2, §3

[7] = culture B, 2,4 DMP added at 0 hours
[8] = culture C, 2,4 DMP added at 1 hours
[9] = culture D, 2,4 DMP added at 2 hours
[10] = culture E, 2,4 DMP added at 6 hours
[11] = culture F, 2,4 DMP added at 24 hours
[12] = culture G, 2,4 DMP added at 48 hours
[13] = culture H, 2,4 DMP added at 72 hours

## Cc1ccc(O)c(C)c1 [2,4-DMP, 2,4-dimethylphenol]
M. pneumoniae [1]; [7]
  Relative Activity 7 Days Following Infection With M. Pneumoniae: 268 ± 6
M. pneumoniae [1]; [8]
  Relative Activity 7 Days Following Infection With M. Pneumoniae: 265 ± 8
M. pneumoniae [1]; [9]
  Relative Activity 7 Days Following Infection With M. Pneumoniae: 220 ± 23
M. pneumoniae [1]; [10]
  Relative Activity 7 Days Following Infection With M. Pneumoniae: 188 ± 23
M. pneumoniae [1]; [11]
  Relative Activity 7 Days Following Infection With M. Pneumoniae: 98 ± 16
M. pneumoniae [1]; [12]
  Relative Activity 7 Days Following Infection With M. Pneumoniae: 95 ± 12
M. pneumoniae [1]; [13]
  Relative Activity 7 Days Following Infection With M. Pneumoniae: 92 ± 15
[2]
  electron microscopic and histopathic examination of epithelium: destruction of their epithelium
[3]; 10^-3 and 10^-4 M
  reductions in RAs of uninfected explants: Significant reductions in RAs
[3]; 10^-5 M or less
  overt cytotoxic effects in uninfected rings: no overt cytotoxic effects
[3]; 10^-3 moles/liter, day 1
  Relative activity following days of incubation with 2,4-DMP: 210 ± 19
[3]; 10^-3 moles/liter, day 2
  Relative activity following days of incubation with 2,4-DMP: 155 ± 12
[3]; 10^-3 moles/liter, day 3
  Relative activity following days of incubation with 2,4-DMP: 105 ± 16
[3]; 10^-3 moles/liter, day 4
  Relative activity following days of incubation with 2,4-DMP: 75 ± 16
[3]; 10^-3 moles/liter, day 5
  Relative activity following days of incubation with 2,4-DMP: 55 ± 12
[3]; 10^-3 moles/liter, day 6
  Relative activity following days of incubation with 2,4-DMP: 50 ± 16
[3]; 10^-3 moles/liter, day 7
  Relative activity following days of incubation with 2,4-DMP: 50 ±16
[3]; 10^-4 moles/liter, day 1
  Relative activity following days of incubation with 2,4-DMP: 255 ± 16
[3]; 10^-4 moles/liter, day 2
  Relative activity following days of incubation with 2,4-DMP: 240 ± 33
[3]; 10^-4 moles/liter, day 3
  Relative activity following days of incubation with 2,4-DMP: 200 ± 49
[3]; 10^-4 moles/liter, day 4
  Relative activity following days of incubation with 2,4-DMP: 160 ± 45
[3]; 10^-4 moles/liter, day 5
  Relative activity following days of incubation with 2,4-DMP: 150 ± 27
[3]; 10^-4 moles/liter, day 6
  Relative activity following days of incubation with 2,4-DMP: 140 ± 24
[3]; 10^-4 moles/liter, day 7
  Relative activity following days of incubation with 2,4-DMP: 135 ± 16
[3]; 10^-5 moles/liter, day 1
  Relative activity following days of incubation with 2,4-DMP: 265 ± 12
[3]; 10^-5 moles/liter, day 2
  Relative activity following days of incubation with 2,4-DMP: 270 ± 0
[3]; 10^-5 moles/liter, day 3
  Relative activity following days of incubation with 2,4-DMP: 264 ± 13
[3]; 10^-5 moles/liter, day 4
  Relative activity following days of incubation with 2,4-DMP: 270 ± 0
[3]; 10^-5 moles/liter, day 5
  Relative activity following days of incubation with 2,4-DMP: 264 ± 13
[3]; 10^-5 moles/liter, day 6
  Relative activity following days of incubation with 2,4-DMP: 258 ± 16
[3]; 10^-5 moles/liter, day 7
  Relative activity following days of incubation with 2,4-DMP: 252 ± 16
M. pneumoniae [4]; 2,4-DMP withheld until attachment is essentially complete
  protective effects on delayed addition: significantly reduced or abolished completely
M. pneumoniae [4]; concentrations less than or equal to 10^-10 M
  alteration of the infectious process: failed to alter the infectious process
M. pneumoniae [4]; conditions of these studies and at the concentrations tested
  inhibiting or altering the course of the infective process, relative to the other dimethylphenol isomers: more effective than any of the other isomers
M. pneumoniae [4]; very low concentrations in the culture media
  effect on the course of infection of explants exposed to M. pneumoniae: dramatically alters the usual course of events
M. pneumoniae [5]; 10^-8 moles/liter
  Tetrazolium Reduction 7 days post infection: 1.066 ± 0.035
M. pneumoniae [5]; 10^-9 moles/liter
  Tetrazolium Reduction 7 days post infection: 1.016 ± 0.029
M. pneumoniae [5]; 10^-10 moles/liter
  Tetrazolium Reduction 7 days post infection: 0.543 ± 0.142
M. pneumoniae [5]; 10^-22 moles/liter (so in the source)
  Tetrazolium Reduction 7 days post infection: 0.453 ± 0.033
M. pneumoniae [5]; at least 10^-9 M
  ability to reduce tetrazolium of rings exposed to M. pneumoniae compared with uninfected controls: indistinguishable from uninfected controls
M. pneumoniae [5]; culture A, 2,4 DMP added at -1 hours
  Tetrazolium Reduction 7 Days Following Infection With M. Pneumoniae: 1.071 ± 0.065 OD/mg
M. pneumoniae [5]; [7]
  Tetrazolium Reduction 7 Days Following Infection With M. Pneumoniae: 1.068 ± 0.050 OD/mg
M. pneumoniae [5]; [8]
  Tetrazolium Reduction 7 Days Following Infection With M. Pneumoniae: 1.062 ± 0.039 OD/mg
M. pneumoniae [5]; [9]
  Tetrazolium Reduction 7 Days Following Infection With M. Pneumoniae: 0.893 ± 0.055 OD/mg
M. pneumoniae [5]; [10]
  Tetrazolium Reduction 7 Days Following Infection With M. Pneumoniae: 0.722 ± 0.032 OD/mg
M. pneumoniae [5]; [11]
  Tetrazolium Reduction 7 Days Following Infection With M. Pneumoniae: 0.386 ± 0.030 OD/mg
M. pneumoniae [5]; [12]
  Tetrazolium Reduction 7 Days Following Infection With M. Pneumoniae: 0.379 ± 0.051 OD/mg
M. pneumoniae [5]; [13]
  Tetrazolium Reduction 7 Days Following Infection With M. Pneumoniae: 0.381 ± 0.048 OD/mg
M. pneumoniae [6]
  surface morphology of rings exposed to M. pneumoniae compared with uninfected controls: indistinguishable from uninfected controls
